From US6136803A, “Antidepressants” (Merrell Pharmaceuticals Inc., priority 1998, dated 2000) come the findings set out here.

Read-outs that look alike come from different tables or passages of the source.

The test has as its system -adrenergic receptors (rat cerebral cortical membranes). The following applies: desipramine 5 mg/kg, i.p.; for [3H]-DHA Specifically Bound: six animals per group, mean ± SEM; for % Control ([3H]-DHA specifically bound): vs saline.

Description: The number of -adrenergic receptors in rat cerebral cortical membranes was measured after a 4 day and 14 day course of one of the following treatments:
a) saline control (intraperitoneal injection - i.p.)
c) fluoxetine (10 mg/kg/day, i.p.) or (10 mg/kg bid, i.p.)
Male Sprague-Dawley rats (175-200 g) were assigned randomly to one of the four treatment groups above and were treated as indicated for either 4 or 14 days. The animals were sacrificed 24 hours after their last treatment and cerebral cortical membranes were isolated. These membranes were assayed for -adrenergic receptor number by the method of Bylund and Snyder [Mol. Pharmacol. 12, 568 (1976)] by measuring the amount of [^3 H]dihydro-alprenolol ([^3 H]-DHA) bound.

As for `CNCCC(Oc1ccc(C(F)(F)F)cc1)c1ccccc1` (stereo not shown) [Fluoxetine, fluoxetine], the “[3H]-DHA Specifically Bound” value amounted to 37.9 ± 1.8 fmol/mg protein (A) 14 days, fluoxetine 10 mg/kg, saline control 41.8 ± 1.4, * p<0.05 vs saline, + P<0.05 vs desipramine) and 51.8 ± 1.7 fmol/mg protein (B) 4 days, fluoxetine 10 mg/kg bid, saline control 54.6 ± 3.1, * p<0.05 vs saline). The “% Control ([3H]-DHA specifically bound)” value was 91 % Control (A) 14 days, fluoxetine 10 mg/kg) and 95 % Control (B) 4 days, fluoxetine 10 mg/kg bid).
